Measured values reported in patent US10428026B2, “Pyridinone dicarboxamide for use as bromodomain inhibitors” (GlaxoSmithKline Intellectual Property (No.2) Limited, priority 2015, dated 2019).

Key:
BRD4 BD1 = biological target: T1, BRD4 BD1 (Homo sapiens, UniProt O60885, Y390A); assay: BRD4 BD1 TR-FRET competition assay; assay type: binding; settings: mean of n determinations; read-out: mean pIC50 in the BRD4 BD1 TR-FRET assay (converted)
T1 construct: BRD4 (1-477) (Y97A) and (Y390A); made in house; host or cells: E. coli (pET15b vector)

BRD4 BD2 = biological target: T2, BRD4 BD2 (Homo sapiens, UniProt O60885, Y97A); assay: BRD4 BD2 TR-FRET competition assay; assay type: binding; settings: for fold selective for BRD4 BD2 over BRD4 BD1: derived from the log unit selectivity; for selectivity for BRD4 BD2 over BRD4 BD1 (BRD4 BD2 pIC50 - BRD4 BD1 pIC50): in at least one of the TR-FRET assays; for IC50: mean of n determinations, read-out: mean pIC50 in the BRD4 BD2 TR-FRET assay (converted)
T2 construct: BRD4 (1-477) (Y97A) and (Y390A); made in house; host or cells: E. coli (pET15b vector)

[1] = test system: BET family (BRD2, BRD3, BRD4 and BRDT) mutant tandem bromodomain proteins; assay: Fluorescence Polarisation binding of Reference Compound X to single and double mutant tandem BET proteins; design: species or system Human
Procedure: The competition of the compounds of formula (I) with Reference Compound X for binding to the BET family (BRD2, BRD3, BRD4 and BRDT) was assessed using protein truncates spanning both bromodomain 1 (BD1) and bromodomain 2 (BD2). In order to monitor differential binding to either BD1 or BD2, single residue mutations of key tyrosines to alanine were made in the acetyl lysine binding pockets. To validate this approach, a double residue mutant tandem domain protein was produced for each of the BET family members. Utilising a Fluorescence Polarisation approach, binding affinities for each of the single and double mutants for Reference Compound X were determined. […] The affinities of the single mutated bromdomain tandem proteins for Reference Compound X were equi-potent with the corresponding non-mutated BET protein. […] In the TR-FRET competition assay, Reference Compound X is used at a concentration that is equivalent to the Kd for the non-mutated bromodomain, which ensures that no binding at the mutated bromodomain is detected. […]

## CNC(=O)c1cc(C(=O)N[C@H]2C[C@@H]2C)cn(Cc2ccccc2)c1=O (single isomer, unassigned) [Example 102]
BRD4 BD1
  IC50: 7.94 µM
BRD4 BD2
  fold selective for BRD4 BD2 over BRD4 BD1: at least 100 fold
  selectivity for BRD4 BD2 over BRD4 BD1 (BRD4 BD2 pIC50 - BRD4 BD1 pIC50): 2.5 log unit
  IC50: 0.0251 µM

## CNC(=O)c1cc(C(=O)N[C@H]2C[C@@H]2C)cn(Cc2cccc(OCCO)c2)c1=O [Example 153, 1-(3-(2-Hydroxyethoxy)benzyl)-N3-methyl-N5-((1S,2S)-2-methylcyclopropyl)-2-oxo-1,2-dihydropyridine-3,5-dicarboxamide]
BRD4 BD1
  IC50: 31.6 µM
BRD4 BD2
  fold selective for BRD4 BD2 over BRD4 BD1: at least 100 fold
  selectivity for BRD4 BD2 over BRD4 BD1 (BRD4 BD2 pIC50 - BRD4 BD1 pIC50): 2.7 log unit
  IC50: 0.0631 µM

## COc1ccc2c(c1)C(c1ccc(Cl)cc1)=N[C@@H](CC(=O)NCCCCCNC(=O)CCCCCC1(C)/C(=C/C=C/C=C/C3=[N+](CCCCS(=O)(=O)O)c4ccc(S(=O)(=O)O)cc4C3(C)C)N(CCCCS(=O)(=O)[O-])c3ccc(S(=O)(=O)O)cc31)c1nnc(C)n1-2 (stereo partly shown) [Reference Compound X]
[1]; double residue mutant versus non mutated, wild type tandem BET proteins
  fold reduction in Kd (affinity) of double mutant tandem proteins for Reference Compound X: > 1000 fold
[1]; single mutations of Tyrosine to Alanine
  fold change of Kd of the interaction between the mutated bromodomain and Reference Compound X: > 1000 fold
